From ChEMBL document CHEMBL4385608, “5-Aryl-1,3,4-oxadiazol-2-ylthioalkanoic Acids: A Highly Potent New Class of Inhibitors of Rho/Myocardin-Related Transcription Factor (MRTF)/Serum Response Factor (SRF)-Mediated Gene Transcription as Potential Antifibrotic Agents for Scleroderma” (J Med Chem, 2019)
Values after ≈ are worked out from the molar mass of the structure shown. Active and inactive are the calls of the source. The calls are words filed in the database; no cut-off is given here.

How the values were obtained:
[1] = Inhibition of Rho/MRTF/SRF pathway (unknown origin) expressed in HEK293T cells assessed as reduction in Galpha12-stimulated MRTF-selective SRE.L promoter-driven luciferase activity after overnight incubation by luminescence assay; type: cell-based, Homo sapiens
HEK-293T = assay: Cytotoxicity against HEK293T cells assessed as reduction in cell viability up to 100 uM by WST-1 assay relative to control; type: cell-based; details: human
[2] = Inhibition of Rho/MRTF/SRF pathway (unknown origin) expressed in human PC3 cells assessed as reduction in Galpha12 Q231L-stimulated MRTF-selective SRE.L promoter-driven luciferase activity after overnight incubation by luminescence assay; type: cell-based
PC-3 [3] = assay: Cytotoxicity against human PC3 cells assessed as reduction in cell viability up to 100 uM by CellTiter-Fluor assay; type: cell-based
Homo sapiens [4] = organism: Homo sapiens; assay: Inhibition of Rho/MRTF/SRF pathway (unknown origin) expressed in human PC3 cells assessed as reduction in Galpha12 Q231L-stimulated MRTF-selective SRE.L promoter-driven luciferase activity up to 100 uM after overnight incubation by luminescence assay; type: cell-based
Homo sapiens [5] = organism: Homo sapiens; assay: Inhibition of Rho/MRTF/SRF pathway in human primary dermal fibroblasts assessed as reduction in LPA-stimulated CTGF mRNA expression by measuring CTGF mRNA level at 10^-6 M preincubated for 72 hrs followed by LPA stimulation and measured after 1 hr by qPCR analysis relative to control; set-up: scale not given: the % may be the effect or the level left
PC-3 [6] = assay: Cytotoxicity against human PC3 cells assessed as reduction in cell viability up to 100 uM by WST-1 assay relative to control; type: cell-based
PC-3 [7] = assay: Cytotoxicity against human PC3 cells assessed as reduction in cell viability by CellTiter-Fluor assay; type: cell-based
[8] = Half-life in CD-1 mouse liver microsomes at 1 uM in presence of NADPH by LC-MS/MS analysis; type: ADME, Microsome
[9] = Thermodynamic solubility of the compound; type: physicochemical; details: read-out: Therm_solubility
[10] = Half-life in CD-1 mouse at 10 mg/kg, iv by LC-MS/MS analysis; type: ADME, organism-based; details: in vivo
[11] = Half-life in CD-1 mouse at 20 mg/kg, po by LC-MS/MS analysis; type: ADME, organism-based; details: in vivo
[12] = AUC in CD-1 mouse at 10 mg/kg, iv by LC-MS/MS analysis; type: ADME, organism-based; details: in vivo
[13] = AUC in CD-1 mouse at 20 mg/kg, po by LC-MS/MS analysis; type: ADME, organism-based; details: in vivo
[14] = Clearance in CD-1 mouse at 10 mg/kg, iv by LC-MS/MS analysis; type: ADME, organism-based; details: in vivo
[15] = Cmax in CD-1 mouse at 10 mg/kg, iv by LC-MS/MS analysis; type: ADME, organism-based; set-up: dose 10 mg/kg, route intravenous; details: in vivo
[16] = Cmax in CD-1 mouse at 20 mg/kg, po by LC-MS/MS analysis; type: ADME, organism-based; set-up: dose 20 mg/kg, route oral; details: in vivo
[17] = Oral bioavailability in CD-1 mouse at 20 mg/kg by LC-MS/MS analysis; type: ADME, organism-based; details: in vivo
Mus musculus [18] = assay: Antifibrotic activity in bleomycin-induced mouse model of dermal fibrosis assessed as decrease in hydroxyproline content administered daily via oral gavage for 14 days measured post-last dose; type: functional, organism-based
Mus musculus [19] = assay: Antifibrotic activity in bleomycin-induced mouse model of dermal fibrosis assessed as decrease in dermal thickness administered daily via oral gavage for 14 days measured post-last dose by Masson's trichrome-staining based microscopic method; type: functional, organism-based
[20] = Half-life in CD-1 mouse at 15 mg/kg, iv by LC-MS/MS analysis; type: ADME, organism-based; details: in vivo
[21] = Half-life in CD-1 mouse at 30 mg/kg, po by LC-MS/MS analysis; type: ADME, organism-based; details: in vivo
[22] = AUC in CD-1 mouse at 15 mg/kg, iv by LC-MS/MS analysis; type: ADME, organism-based; details: in vivo
[23] = AUC in CD-1 mouse at 30 mg/kg, po by LC-MS/MS analysis; type: ADME, organism-based; details: in vivo
[24] = Clearance in CD-1 mouse at 15 mg/kg, iv by LC-MS/MS analysis; type: ADME, organism-based; details: in vivo
[25] = Cmax in CD-1 mouse at 15 mg/kg, iv by LC-MS/MS analysis; type: ADME, organism-based; set-up: dose 15 mg/kg, route intravenous; details: in vivo
[26] = Cmax in CD-1 mouse at 30 mg/kg, po by LC-MS/MS analysis; type: ADME, organism-based; set-up: dose 30 mg/kg, route oral; details: in vivo
[27] = Oral bioavailability in CD-1 mouse at 30 mg/kg by LC-MS/MS analysis; type: ADME, organism-based; details: in vivo
Homo sapiens [28] = organism: Homo sapiens; assay: Inhibition of Rho/MRTF/SRF pathway in human primary dermal fibroblasts assessed as reduction in LPA-stimulated CTGF mRNA expression preincubated for 48 hrs followed by LPA stimulation and measured after 1 hr by qPCR analysis
Homo sapiens [29] = organism: Homo sapiens; assay: Inhibition of Rho/MRTF/SRF pathway in human primary dermal fibroblasts assessed as reduction in LPA-stimulated CTGF mRNA expression preincubated for 72 hrs followed by LPA stimulation and measured after 1 hr by qPCR analysis

Row | Compound | IC50 [1] [nM] | Activity (HEK-293T) [%] | IC50 [2] [nM] | Activity (PC-3 [6]) [%] | further results
1 | Cc1cc(-c2nnc(SCCC(=O)O)o2)c(Cl)cc1Cl | 0.32 | < 5 |  |  | 
2 | O=C(O)CCSc1nc2ccccc2n1Cc1ccccc1 |  |  | > 100000 |  | 
3 | Cc1ccc(=O)n(-c2ccccc2)c1 [PIRFENIDONE] |  |  |  |  | Activity (PC-3 [3]): Toxic; inhibition (Homo sapiens [4]): inactive; Activity (Homo sapiens [5]): 91%
4 | Cc1ccccc1-c1nnc(SCCC(=O)O)o1 |  |  | 6300 | < 5 | 
5 | O=C(O)CCSc1nnc(-c2cccnc2)o1 |  |  | 87000 |  | 
6 | COc1ccccc1-c1nnc(SCCC(=O)O)o1 |  |  | 3100 | < 5 | 
7 | COC(=O)c1ccc2c(c1)NC(=O)/C2=C(\Nc1ccc(N(C)C(=O)CN2CCN(C)CC2)cc1)c1ccccc1 [NINTEDANIB] |  |  | 1300 |  | IC50 (PC-3 [7]): < 30000 nM; Activity (Homo sapiens [5]): 45%
8 | O=C(O)CCCSc1nnc(-c2ccccc2C(F)(F)F)o1 | 10000 | < 5 |  |  | 
9 | Cc1ccc(-c2nnc(SCCC(=O)O)o2)c(Cl)c1 |  |  | 1.5 | < 5 | 
10 | O=C(O)CCSc1nnc(-c2ccncc2)o1 |  |  | > 100000 |  | 
11 | O=C(O)CCCSc1nnc(-c2ccc(C(F)(F)F)cc2Cl)o1 | 0.06 | < 5 |  |  | t1/2 [8]: > 1 h
12 | O=C(O)CCCSc1nnc(-c2ccc(-c3ccccc3)cc2Cl)o1 | 25 | < 5 |  |  | 
13 | O=C(O)CCCSc1nnc(-c2ccc(OC3COC3)cc2Cl)o1 | 370 | < 5 |  |  | 
14 | O=C(O)CCCSc1nnc(-c2ccc(Cl)cc2Cl)o1 | 0.84 | < 5 | 1.8 | < 5 | t1/2 [8]: > 1 h; solubility thermodynamic [9]: 841 µM (≈ 280 µg/mL); half-life [10]: 1.4 h; half-life [11]: 1.2 h; AUC [12]: 10700 ng·h/mL; AUC [13]: 11100 ng·h/mL; clearance [14]: 15.5 mL/min/kg; Cmax [15]: 35600 ng/mL; Cmax [16]: 23200 ng/mL; bioavailability [17]: 52%
15 | Cc1ccc(-c2nnc(SCCC(=O)O)o2)cc1 |  |  | 34 | < 5 | 
16 | Cc1ccc(-c2nnc(SCCCC(=O)O)o2)c(Cl)c1 |  |  | 0.1 | < 5 | t1/2 [8]: 0.467 h
17 | O=C(O)CCCSc1nnc(-c2ccc(OC3CC3)cc2Cl)o1 | 1.3 | < 5 |  |  | t1/2 [8]: > 1 h
18 | COc1ccc(-c2nnc(SCCC(=O)O)o2)c(Cl)c1 |  |  | 2.6 | < 5 | 
19 | Cc1cccc(-c2nnc(SCCC(=O)O)o2)c1 |  |  | 180 | < 5 | 
20 | Cc1ccc(-c2nnc(SCCC(=O)O)o2)c(Cl)c1C | 0.02 | < 5 |  |  | 
21 | O=C(O)CCSc1nnc(-c2ccc(Cl)cc2Cl)o1 | 2 | < 5 | 4 | < 5 | Activity (Mus musculus [18]): Dose-dependent effect; Activity (Mus musculus [19]): Dose-dependent effect; t1/2 [8]: > 1 h; solubility thermodynamic [9]: 682 µM (≈ 218 µg/mL); t1/2 [20]: 2 h; half-life [21]: 2 h; AUC [22]: 47400 ng·h/mL; AUC [23]: 63200 ng·h/mL; clearance [24]: 5.3 mL/min/kg; Cmax [25]: 88600 ng/mL; Cmax [26]: 34000 ng/mL; bioavailability [27]: 67%; inhibition (Homo sapiens [28]): inactive; inhibition (Homo sapiens [29]): Dose-dependent effect
22 | O=C(O)CCCOc1nnc(-c2ccc(Cl)cc2Cl)o1 | > 100000 |  |  |  | 
23 | O=C(O)CCSc1nc(-c2ccccc2)cc(=O)[nH]1 |  |  | > 100000 |  | 
24 | CCc1ccc(-c2nnc(SCCCC(=O)O)o2)c(Cl)c1 | 0.0007 | < 5 |  |  | 
25 | Cc1occc1-c1nnc(SCCC(=O)O)o1 |  |  | > 100000 |  | 
